Laboratory results taken from the supplement of paper PMC11061612.

Key:
Experiment in all cases: combination Emax (second highest fraction inhibited in the dose matrix, 72 h); higher = more inhibition; extreme values may be limits of the assay
[1] = system: ZR-75-30 (Breast Carcinoma)
Procedure, shortened: (§1)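 Cell lines grown in DMEM/F12 or RPMI with 10% FBS were plated in 1536-well plates and held 24 hours at 37°C, 5% CO2 before 72 hours of exposure to two-drug dose matrices, with DMSO typically at 0.2%. CellTiter-Glo 2.0 luminescence gave viability, which was converted to inhibition. Vehicle wells were set to 0 and blank wells to 1. Combination Emax is the second-highest inhibition in the matrix, and Bliss excess is the observed combination effect minus the expected EA + EB − EA·EB, where EA and EB are the single-agent effects.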

[2] = system: SNU-407 (Colorectal Carcinoma)
Procedure, shortened: as §1

[3] = system: MOLP-8 (Plasma Cell Myeloma)
Procedure, shortened: as §1

[4] = system: TUR (Acute Myeloid Leukemia)
Procedure, shortened: as §1

[5] = system: BHT-101 (Thyroid Gland Carcinoma)
Procedure, shortened: as §1

[6] = system: RCC-JW (Kidney Carcinoma)
Procedure, shortened: as §1

[7] = system: NCI-H1963 (Small Cell Lung Carcinoma)
Procedure, shortened: as §1

[8] = system: NCI-H2373 (Mesothelioma)
Procedure, shortened: as §1

[9] = system: NMC-G1 (Low Grade Glioma)
Procedure, shortened: as §1

[10] = system: KALS-1 (Glioblastoma)
Procedure, shortened: as §1

[11] = system: P30-OHK (B-Lymphoblastic Leukemia)
Procedure, shortened: as §1

[12] = system: IST-MEL1 (Melanoma)
Procedure, shortened: as §1

[13] = system: MONO-MAC-6 (Acute Myeloid Leukemia)
Procedure, shortened: as §1

[14] = system: COR-L88 (Small Cell Lung Carcinoma)
Procedure, shortened: as §1

[15] = system: MOLT-13 (T-Lymphoblastic Leukemia)
Procedure, shortened: as §1

[16] = system: ES6 (Ewing's Sarcoma)
Procedure, shortened: as §1

[17] = system: NAMALWA (Burkitt's Lymphoma)
Procedure, shortened: as §1

[18] = system: WM35 (Melanoma)
Procedure, shortened: as §1

[19] = system: P32-ISH (Burkitt's Lymphoma)
Procedure, shortened: as §1

[20] = system: SK-CO-1 (Colorectal Carcinoma)
Procedure, shortened: as §1

Compound | combination Emax [1] | combination Emax [2] | combination Emax [3] | combination Emax [4] | combination Emax [5] | combination Emax [6] | combination Emax [7] | combination Emax [8] | combination Emax [9] | combination Emax [10] | combination Emax [11] | combination Emax [12] | combination Emax [13] | combination Emax [14] | combination Emax [15] | combination Emax [16] | combination Emax [17] | combination Emax [18] | combination Emax [19] | combination Emax [20]
COc1cccc(OCCCN)c1-c1cc(Nc2cnc(C#N)cn2)n[nH]1 [Prexasertib] + C[C@@H]1COCCN1C2=NC(=NC(=C2)C3(CC3)[S@](=N)(=O)C)C4=C5C=CNC5=NC=C4 [AZD6738] (first compound max 1 µM, 7x7, partner max 10 µM) | 0.166 | 0.757 | 0.891 | 1 | 0.78 | 0.589 | 0.952 | 0.644 | 0.314 | 0.899 | 0.981 | 0.817 | 0.993 | 0.833 | 1 | 0.61 | 0.986 | 0.833 | 1 | 0.656
CC(=O)Nc1cccc(-n2c(=O)n(C3CC3)c(=O)c3c(Nc4ccc(I)cc4F)n(C)c(=O)c(C)c32)c1 [Trametinib] + Cc1nc(-c2cn3c(n2)-c2ccc(-c4cnn(C(C)(C)C(N)=O)c4)cc2OCC3)n(C(C)C)n1 [Taselisib] (first compound max 1 µM, 7x7, partner max 10 µM) | 0.667 | 0.905 | 1 | 0.992 | 1 | 0.556 | 0.435 | 0.766 | 0.488 | 0.951 | 0.49 | 0.932 | 1 | 0.154 | 0.698 | 0.607 | 0.589 | 0.97 | 0.508 | 1
Cc1c2c(nn1C)CSCc1cc(n(C)n1)CSc1cc(c3ccccc3c1)OCCCc1c(C(=O)O)n(C)c3c-2c(Cl)ccc13 [AZD5991] + CCN(CCO)CCCOc1ccc2c(Nc3cc(CC(=O)Nc4cccc(F)c4)[nH]n3)ncnc2c1 [AZD2811] (first compound max 1 µM, 7x7, partner max 1 µM) | 0.511 | 0.694 | 1 | 0.536 | 0.267 | 0.251 | 0.842 | 0.267 | 0.305 | 0.358 | 0.963 | 0.349 | 1 | 0.36 | 1 | 0.29 | 0.98 | 0.243 | 1 | 0.73
Cc1cc2ncnn2cc1Nc1ncc2c(n1)n(C1CCOCC1)c(=O)n2C [AZD7648] + C[C@@H]1COCCN1C2=NC(=NC(=C2)C3(CC3)[S@](=N)(=O)C)C4=C5C=CNC5=NC=C4 [AZD6738] (first compound max 10 µM, 7x7, partner max 10 µM) | 0.17 | 0.663 | 0.822 | 0.907 | 0.626 | 0.568 | 0.728 | 0.674 | 0.31 | 0.866 | 0.811 | 0.777 | 0.899 | 0.713 | 0.903 | 0.601 | 0.936 | 0.497 | 0.938 | 0.563
CN(CCO)CC[C@H](CSc1ccccc1)Nc1ccc(S(=O)(=O)NC(=O)c2ccc(N3CCC([C@@H](O)c4ccccc4-c4ccc(Cl)cc4)CC3)cc2)cc1S(=O)(=O)C(F)(F)F [AZD4320] + C[C@@H](Nc1cc(F)cc(F)c1)c1cc(C(=O)N(C)C)cc2c(=O)cc(N3CCOCC3)oc12 [AZD8186] (first compound max 1 µM, 7x7, partner max 3 µM) | 0.285 | 0.311 | 0.414 | 0.19 | 0.616 | 0.817 | 1 | 0.48 | 0.814 | 0.5 | 0.979 | 0.405 | 0.714 | 0.966 | 0.996 | 0.463 | 0.573 | 0.561 | 0.782 | 0.917
COc1cccc(OCCCN)c1-c1cc(Nc2cnc(C#N)cn2)n[nH]1 [Prexasertib] + C=CCn1c(=O)c2cnc(Nc3ccc(N4CCN(C)CC4)cc3)nc2n1-c1cccc(C(C)(C)O)n1 [AZD1775] (first compound max 1 µM, partner max 1 µM) | 0.137 | 0.784 | 0.909 | 1 | 0.881 | 0.703 | 1 | 0.497 | 0.384 | 0.901 | 0.98 | 0.812 | 1 | 0.853 | 1 | 0.603 | 0.989 | 0.819 | 1 | 0.775
CN(C)CCCOc1ccc(-c2ccc3ncc4c(c3c2)n(C2CCOCC2)c(=O)n4C)cn1 [AZD0156] + CCN(CCO)CCCOc1ccc2c(Nc3cc(CC(=O)Nc4cccc(F)c4)[nH]n3)ncnc2c1 [AZD2811] (first compound max 1 µM, 7x7, partner max 1 µM) | 0.135 | 0.287 | 0.603 | 0.218 | 0.203 | 0.093 | 0.857 | 0.354 | 0.126 | 0.214 | 0.834 | 0.231 | 0.743 | 0.127 | 0.99 | 0.176 | 0.402 | 0.119 | 0.962 | 0.798
COc1cccc(OCCCN)c1-c1cc(Nc2cnc(C#N)cn2)n[nH]1 [Prexasertib] + CCc1c2c(nc3ccc(O)cc13)-c1cc3c(c(=O)n1C2)COC(=O)[C@]3(O)CC [SN-38] (first compound max 1 µM, 7x7, partner max 0.3 µM) | 0.14 | 0.639 | 0.847 | 1 | 0.91 | 0.637 | 1 | 0.642 | 0.315 | 0.951 | 0.995 | 0.889 | 1 | 0.866 | 1 | 0.837 | 0.986 | 0.726 | 1 | 0.826
C=CCn1c(=O)c2cnc(Nc3ccc(N4CCN(C)CC4)cc3)nc2n1-c1cccc(C(C)(C)O)n1 [AZD1775] + O=C(c1cc(Cc2n[nH]c(=O)c3ccccc23)ccc1F)N1CCN(C(=O)C2CC2)CC1 [Olaparib] (first compound max 1 µM, partner max 10 µM) | 0.213 | 0.465 | 0.754 | 0.663 | 0.406 | 0.326 | 0.845 | 0.354 | 0.431 | 0.896 | 0.748 | 0.49 | 0.942 | 0.594 | 0.975 | 0.444 | 0.96 | 0.303 | 0.997 | 0.662
CN(CCO)CC[C@H](CSc1ccccc1)Nc1ccc(S(=O)(=O)NC(=O)c2ccc(N3CCC([C@@H](O)c4ccccc4-c4ccc(Cl)cc4)CC3)cc2)cc1S(=O)(=O)C(F)(F)F [AZD4320] + C[C@@H]1COCCN1C2=NC(=NC(=C2)C3(CC3)[S@](=N)(=O)C)C4=C5C=CNC5=NC=C4 [AZD6738] (first compound max 1 µM, 7x7, partner max 10 µM) | 0.286 | 0.709 | 0.787 | 0.971 | 0.877 | 0.79 | 1 | 0.672 | 0.876 | 0.939 | 1 | 0.941 | 0.943 | 0.992 | 1 | 0.665 | 0.928 | 0.367 | 0.896 | 0.928
CC1(C)CCC(CN2CCN(c3ccc(C(=O)NS(=O)(=O)c4ccc(NCC5CCOCC5)c([N+](=O)[O-])c4)c(Oc4cnc5[nH]ccc5c4)c3)CC2)=C(c2ccc(Cl)cc2)C1 [Venetoclax] + CN(C)CCCOc1ccc(-c2ccc3ncc4c(c3c2)n(C2CCOCC2)c(=O)n4C)cn1 [AZD0156] (first compound max 1 µM, 7x7, partner max 1 µM) | 0.105 | 0.234 | 0.169 | 0.0455 | 0.246 | 0.184 | 0.565 | 0.269 | 0.192 | 0.646 | 0.458 | 0.42 | 0.619 | 0.525 | 0.718 | 0.349 | 0.613 | 0.135 | 0.0131 | 0.271
Cc1cc2ncnn2cc1Nc1ncc2c(n1)n(C1CCOCC1)c(=O)n2C [AZD7648] + O=C(c1cc(Cc2n[nH]c(=O)c3ccccc23)ccc1F)N1CCN(C(=O)C2CC2)CC1 [Olaparib] (first compound max 10 µM, 7x7, partner max 10 µM) | 0.12 | 0.239 | 0.382 | 0.114 | 0.383 | 0.198 | 0.299 | 0.572 | 0.18 | 0.18 | 0.364 | 0.24 | 0.317 | 0.231 | 0.35 | 0.222 | 0.578 | 0.119 | 0.207 | 0.488
